Molecules are shown by their SMILES. “And” between values parts separate entries of the source, which are not always exact repeats. Identical values can stand only once.

For orientation: melting point means the temperature of the solid-liquid transition. `COc1cc(-c2ncnc(C(F)(F)F)c2Cl)c(F)cc1Cl` [A-1, 5-chloro-4-(4-chloro-2-fluoro-5-methoxyphenyl)-6-trifluoromethylpyrimidine]: the melting point was 112 to 113 °C and 109 to 111 °C.

For `C#CCOc1cc(-c2ncnc(C(F)(F)F)c2Cl)c(F)cc1Cl` [A-3, 5-Chloro-4-(4-chloro-2-fluoro-5-propargyloxyphenyl)-6-trifluoromethylpyrimidine], the melting point fell in the range of 112 to 113 °C. For the molecule `CCS(=O)(=O)Nc1cc(-c2ncnc(C(F)(F)F)c2Cl)c(F)cc1C#N` [A-16, 5-chloro-4-[4-cyano-5-(N-ethanesulfonylamino)-2-fluorophenyl]-6-trifluoromethylpyrimidine], the melting point is 188 to 189 °C and 191 to 194 °C. To `CCS(=O)(=O)N(C(C)=O)c1cc(-c2ncnc(C(F)(F)F)c2Cl)c(F)cc1C#N` [A-23, 4-[5-(N-acetyl-N-ethanesulfonylamino)-4-cyano-2-fluorophenyl]-5-chloro-6-trifluoromethylpyrimidine] belongs 144 to 146 °C; to `C=CCOc1cc(-c2ncnc(C(F)F)c2Cl)c(F)cc1Cl` [D-2, 4-(5-Allyloxy-4-chloro-2-fluorophenyl)-5-chloro-6-difluoromethylpyrimidine], 69 to 71 °C and 67 to 71 °C. To `Fc1cc(Cl)c(OC(F)F)cc1-c1ncnc(C(F)F)c1Cl` [D-7, 5-Chloro-4-[4-chloro-2-fluoro-5-(difluoromethoxy)phenyl]-6-difluoromethylpyrimidine] belongs 56 to 57 °C. `CCS(=O)(=O)Nc1cc(-c2ncnc(C(F)F)c2Cl)c(F)cc1Cl` [D-14, 5-Chloro-4-(4-chloro-5-ethylsulfonylamino-2-fluoro-phenyl)-6-difluoromethylpyrimidine]: the melting point was 138 to 139 °C. `CCS(=O)(=O)Nc1cc(-c2ncnc(C(F)F)c2Cl)c(Cl)cc1Cl` [D-16, 5-Chloro-4-(2,4-dichloro-5-ethylsulfonylaminophenyl)-6-difluoromethylpyrimidine] displayed a melting point of 140 to 142 °C.

`CC(=O)Nc1cc(-c2ncnc(C(F)F)c2Cl)c(F)cc1C#N` [D-21, 4-(5-Acetylamino-4-cyano-2-fluorophenyl)-5-chloro-6-difluoromethylpyrimidine] gave a melting point of 160 to 162 °C. To `CCS(=O)(=O)Nc1cc(-c2ncnc(C(F)F)c2Cl)c(F)cc1C#N` [D-26, 5-Chloro-4-[4-cyano-5-(ethylsulfonylamino)-2-fluoro-phenyl]-6-difluoromethylpyrimidine] belongs 200 to 202 °C.

`CCS(=O)(=O)N(C(C)=O)c1cc(-c2ncnc(C(F)F)c2Cl)c(F)cc1C#N` [D-27, 4-[5-(N-acetyl-N-ethylsulfonylamino)-4-cyano-2-fluorophenyl]-5-chloro-6-difluoromethylpyrimidine] came in with a melting point of 121 to 122 °C. To `COC(=O)c1cc(-c2ncnc(C(F)F)c2Cl)c(F)cc1Cl` [D-41, 2-Chloro-4-fluoro-5-(5-chloro-6-difluoromethyl-pyrimidin-4-yl)benzoic acid methyl ester] belongs 100 to 101 °C; to `C#CCSc1cc(-c2ncnc(C(F)F)c2Cl)c(F)cc1Cl` [D-48, 5-Chloro-4-(4-chloro-2-fluoro-5-propargylthio-phenyl)-6-difluoromethylpyrimidine], 95 to 97 °C; to `CC(C)NS(=O)(=O)c1cc(-c2ncnc(C(F)F)c2Cl)c(F)cc1Cl` [D-50, 2-Chloro-5-(5-chloro-6-difluoromethylpyrimidin-4-yl)-4-fluoro-N-isopropylbenzenesulfonamide], 172 to 175 °C. Regarding `Cc1ncnc(-c2ccc(Cl)cc2F)c1Cl` [E-1, 4-(4-Chloro-2-fluorophenyl)-5-chloro-6-methyl-pyrimidine], the melting point lay within 77 to 79 °C. The molecule `CCS(=O)(=O)Nc1cc(-c2ncnc(C)c2Cl)c(F)cc1C#N` [E-10, 5-Chloro-4-[4-cyano-5-(ethylsulfonylamino)-2-fluoro-phenyl]-6-methylpyrimidine] gave a melting point of 182 to 184 °C. As for `CCS(=O)(=O)Nc1cc(-c2ncnc(C(C)C)c2Cl)c(F)cc1C#N` [E-13, 5-Chloro-4-[4-cyano-5-(ethylsulfonylamino)-2-fluoro-phenyl]-6-isopropylpyrimidine], the melting point fell in the range of 160 to 162 °C.

`C#CCOc1cc(-c2ncnc(C(Cl)Cl)c2Cl)c(F)cc1Cl` [E-19, 5-Chloro-4-(4-chloro-2-fluoro-5-propargyloxyphenyl)-6-dichloromethylpyrimidine]: the melting point was in the range of 86 to 88 °C. Take `COc1cc(-c2ncnc(OC)c2Cl)c(F)cc1Cl` [H-1, 5-Chloro-4-(4-chloro-2-fluoro-5-methoxyphenyl)-6-methoxypyrimidine]: the melting point fell in the range of 142 to 143 °C.

Regarding `CCS(=O)(=O)Nc1cc(-c2ncnc(OC)c2Cl)c(F)cc1C#N` [H-7, 5-Chloro-4-[4-cyano-5-(ethylsulfonylamino)-2-fluorophenyl]-6-methoxypyrimidine], the melting point lay within 149 to 150 °C. The molecule `CCS(=O)(=O)Nc1cc(-c2ncnc(Cl)c2Cl)c(F)cc1C#N` [H-16, 4,5-Dichloro-6-[4-cyano-5-(ethylsulfonylamino)-2-fluorophenyl]pyrimidine] showed a melting point of 149 to 150 °C. Take `CCS(=O)(=O)Nc1cc(C2(NC)NC=NC=C2Cl)c(F)cc1C#N` (stereo not shown) [H-20, 5-Chloro-6-[4-cyano-5-(ethylsulfonylamino)-2-fluoro-phenyl]-6-methylaminopyrimidine]: the melting point lay in the range of 211 to 212 °C. As to `CCS(=O)(=O)Nc1cc(-c2ncnc(NOC)c2Cl)c(F)cc1C#N` [H-27, 5-Chloro-4-[4-cyano-5-(ethylsulfonylamino)-2-fluoro-phenyl]-6-methoxyaminopyrimidine], the melting point is 188 to 189 °C. To `COC1(F)C=C(Cl)C=CC1c1ncnc(C)c1C` (stereo not shown) [J-1, 4-(4-Chloro-2-fluoro-2-methoxyphenyl)-5,6-dimethyl-pyrimidine] belongs 156 to 157 °C; to `C#CCOc1cc(-c2ncnc(C)c2C)c(F)cc1Cl` [J-3, 4-(4-Chloro-2-fluoro-5-propargyloxyphenyl)-5,6-dimethyl pyrimidine], 131 to 133 °C; to `COc1cc(-c2ncnc(C(F)(F)F)c2C)c(F)cc1Cl` [J-5, 4-(4-Chloro-2-fluoro-5-methoxyphenyl)-5-methyl-6-trifluoromethylpyrimidine], 144 to 146 °C. Molecule `C#CCOc1cc(-c2ncnc(C(F)(F)F)c2C)c(F)cc1Cl` [J-7, 4-(4-Chloro-2-fluoro-5-propargyloxyphenyl)-5-methyl-6-trifluoromethylpyrimidine] had a melting point of 90 to 92 °C. Take `CCS(=O)(=O)N(C(C)=O)c1cc(-c2ncnc(C(F)F)c2Cl)c(F)cc1C#N` [J-14, 4-[5-(N-acetyl-N-ethylsulfonylamino)-4-cyano-2-fluorophenyl]-5-chloro-6-difluoromethylpyrimidine]: the melting point was in the range of 123 to 124 °C. `COc1ncnc(-c2cc(NS(C)(=O)=O)c(C#N)cc2F)c1C` [J-16, 4-(4-cyano-5-methylsulfonylamino-2-fluorophenyl)-6-methoxy-5-methylpyrimidine]: the melting point lay within 218 to 220 °C. `COc1cc(-c2ncnc(OC)c2C#N)c(F)cc1Cl` [K-1, 4-(4-Chloro-2-fluoro-5-methoxyphenyl)-5-cyano-6-methoxypyrimidine]: the melting point fell in the range of 183 to 185 °C. Then `CCS(=O)(=O)Nc1cc(-c2ncnc(OC)c2C#N)c(F)cc1C#N` [K-3, 4-(4-Cyano-5-ethylsulfonylamino-2-fluorophenyl)-5-cyano-6-methoxypyrimidine], with 187 to 189 °C; and `COC(=O)c1cc(-c2ncnc(C)c2C#N)c(F)cc1Cl` [K-19, Methyl 2-chloro-5-(5-cyano-6-methylpyrimidin-4-yl)-4-fluorobenzoate], with 142 to 144 °C. `COc1ncnc(-c2cc(NS(C)(=O)=O)c(Cl)cc2Cl)c1C#N` [K-20, 4-(2,4-Dichloro-5-methylsulfonylaminophenyl)-5-cyano-6-methoxypyrimidine]: the melting point was in the range of 160 to 162 °C. To `COc1cc(-c2ncnc(OC)c2C=O)c(F)cc1Cl` [L-1, 4-(4-Chloro-2-fluoro-5-methoxyphenyl)-5-formyl-6-methoxypyrimidine] belongs 161 to 163 °C.

Source of the values: patent US20040092402A1, “Pyrimidine derivatives and herbicides containing the same” (priority 2000, published 2004).
